# Calls of active or inactive are those of the source. The rule behind the calls is not given here.
# Columns and labels:
# [1] = Half life in human plasma by LC-MS/MS analysis; format: ADME, cell-free
# [2] = Inhibition of ROCK-catalysed MLC Thr18/Ser19 phosphorylation in rat A7r5 cells after 90 mins by ELISA; format: cell-based; conditions: A7R5, 1.5 h
# [3] = Induction of apoptosis in human HDF-1 cells assessed as increase in caspase3/7 activity at 40-100 uM after 24 hrs by caspase Glo-3/7 assay; format: cell-based; conditions: hdf-1, 24 h
# [4] = Cytotoxicity against human HDF-1 cells assessed as decrease in cell viability after 2 hrs by WST-1 assay; format: cell-based
# [5] = Stability in human plasma assessed as compound remaining after 60 mins by LC-MS/MS analysis; format: ADME, cell-free; conditions: read-out: Stability
# HDF-1 = assay: Induction of cell migration in human HDF-1 cells after 8 hrs by wound healing assay; format: functional, cell-based
# [6] = biological target: T1, Rho-associated protein kinase 2 (Homo sapiens, UniProt O75116); assay: Inhibition of human N-terminal GST-tagged ROCK2 expressed in baculovirus-infected insect cells using long S6 kinase peptide as substrate by radiometric assay in presence of [32P]ATP
# T1 sequence (O75116 whole entry): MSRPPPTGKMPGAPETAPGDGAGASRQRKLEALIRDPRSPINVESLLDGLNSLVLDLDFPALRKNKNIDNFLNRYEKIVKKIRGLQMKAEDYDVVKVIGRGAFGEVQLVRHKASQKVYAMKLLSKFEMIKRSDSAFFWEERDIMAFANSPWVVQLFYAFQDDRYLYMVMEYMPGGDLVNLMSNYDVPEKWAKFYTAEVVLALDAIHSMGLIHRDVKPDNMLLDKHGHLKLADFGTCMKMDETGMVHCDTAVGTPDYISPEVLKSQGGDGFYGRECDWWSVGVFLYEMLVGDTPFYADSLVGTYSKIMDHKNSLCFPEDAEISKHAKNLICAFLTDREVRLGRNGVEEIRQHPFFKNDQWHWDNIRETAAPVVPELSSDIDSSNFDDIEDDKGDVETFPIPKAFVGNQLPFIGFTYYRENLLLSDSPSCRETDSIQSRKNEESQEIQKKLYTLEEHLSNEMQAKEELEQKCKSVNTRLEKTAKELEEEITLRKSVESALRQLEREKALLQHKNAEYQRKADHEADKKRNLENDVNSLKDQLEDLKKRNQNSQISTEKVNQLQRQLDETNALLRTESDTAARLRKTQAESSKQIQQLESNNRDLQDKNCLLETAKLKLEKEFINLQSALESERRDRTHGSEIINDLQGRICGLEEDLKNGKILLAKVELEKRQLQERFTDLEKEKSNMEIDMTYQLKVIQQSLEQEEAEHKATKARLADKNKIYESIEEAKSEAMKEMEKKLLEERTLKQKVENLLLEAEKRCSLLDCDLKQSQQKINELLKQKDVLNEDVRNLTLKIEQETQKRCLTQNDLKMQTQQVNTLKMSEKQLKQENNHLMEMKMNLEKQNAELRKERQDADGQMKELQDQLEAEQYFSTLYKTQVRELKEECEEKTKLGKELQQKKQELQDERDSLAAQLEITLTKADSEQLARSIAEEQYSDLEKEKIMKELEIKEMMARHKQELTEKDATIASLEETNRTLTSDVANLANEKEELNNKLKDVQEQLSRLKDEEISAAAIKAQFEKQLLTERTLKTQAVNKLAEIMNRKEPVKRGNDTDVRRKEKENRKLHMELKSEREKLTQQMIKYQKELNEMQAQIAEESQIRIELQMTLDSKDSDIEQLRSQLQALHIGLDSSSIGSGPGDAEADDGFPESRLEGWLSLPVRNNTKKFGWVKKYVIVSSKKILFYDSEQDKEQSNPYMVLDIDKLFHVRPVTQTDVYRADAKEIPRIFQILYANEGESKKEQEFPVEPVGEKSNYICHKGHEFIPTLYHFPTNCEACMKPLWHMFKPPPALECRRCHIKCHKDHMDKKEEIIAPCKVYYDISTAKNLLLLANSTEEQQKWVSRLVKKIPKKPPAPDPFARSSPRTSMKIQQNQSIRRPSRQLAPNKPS
# [7] = biological target: T1, Rho-associated protein kinase 2; assay: Inhibition of human N-terminal GST-tagged ROCK2 expressed in baculovirus-infected insect cells using long S6 kinase peptide as substrate by radiometric assay in presence of [32P]ATP and 200 uM ATP
# [8] = Stability in human plasma assessed as compound remaining after 60 mins by LC-MS/MS analysis in presence of 5 uM cholinesterase inhibitor tacrine; format: ADME, cell-free; conditions: with tacrine (cholinesterase inhibitor), read-out: Stability
# Plasma [9] = assay: Stability in human plasma after 120 mins by LC-MS/MS analysis in presence of generic serine protease/serine esterase inhibitor, PMSF; format: ADME, cell-free; conditions: 2 h
# Plasma [10] = assay: Stability in human plasma by LC-MS/MS analysis in presence of arylesterase inhibitor DTNB; format: ADME, cell-free
# Plasma [11] = assay: Stability in human plasma by LC-MS/MS analysis in presence of 5 mM PON1 inhibitor, disodium EDTA; format: ADME, cell-free
# [12] = Induction of apoptosis in human HDF-1 cells assessed as increase in caspase3/7 activity at 60 uM after 24 hrs by caspase Glo-3/7 assay; format: cell-based; conditions: hdf-1, 24 h
# Plasma [13] = assay: Stability in human plasma by LC-MS/MS analysis in presence of carboxylesterase inhibitor BNPP; format: ADME, cell-free
# Oryctolagus cuniculus [14] = assay: Cmax in NewZealand white rabbit plasma assessed as 4-{[(2'-(Aminomethyl)-5'-{[(3-fluoropyridin-4-yl)amino]-carbonyl}biphenyl-3-yl)carbonyl]amino}benzoic Acid at 0.1 mg/kg, iv after 120 mins by LC-MS/MS analysis; format: ADME, organism-based; parameters: dose 0.1 mg/kg, route intravenous; conditions: in vivo, 2 h
# [15] = biological target: Protein kinase C eta type (Homo sapiens) (UniProt P24723); assay: Inhibition of human N-terminal GST-tagged PKC eta expressed in baculovirus-infected insect cells using PKCe peptide as substrate at 10 nM by radiometric assay in presence of [32P]ATP and lipid activator
# Sequence of Protein kinase C eta type (Homo sapiens) (P24723 whole entry): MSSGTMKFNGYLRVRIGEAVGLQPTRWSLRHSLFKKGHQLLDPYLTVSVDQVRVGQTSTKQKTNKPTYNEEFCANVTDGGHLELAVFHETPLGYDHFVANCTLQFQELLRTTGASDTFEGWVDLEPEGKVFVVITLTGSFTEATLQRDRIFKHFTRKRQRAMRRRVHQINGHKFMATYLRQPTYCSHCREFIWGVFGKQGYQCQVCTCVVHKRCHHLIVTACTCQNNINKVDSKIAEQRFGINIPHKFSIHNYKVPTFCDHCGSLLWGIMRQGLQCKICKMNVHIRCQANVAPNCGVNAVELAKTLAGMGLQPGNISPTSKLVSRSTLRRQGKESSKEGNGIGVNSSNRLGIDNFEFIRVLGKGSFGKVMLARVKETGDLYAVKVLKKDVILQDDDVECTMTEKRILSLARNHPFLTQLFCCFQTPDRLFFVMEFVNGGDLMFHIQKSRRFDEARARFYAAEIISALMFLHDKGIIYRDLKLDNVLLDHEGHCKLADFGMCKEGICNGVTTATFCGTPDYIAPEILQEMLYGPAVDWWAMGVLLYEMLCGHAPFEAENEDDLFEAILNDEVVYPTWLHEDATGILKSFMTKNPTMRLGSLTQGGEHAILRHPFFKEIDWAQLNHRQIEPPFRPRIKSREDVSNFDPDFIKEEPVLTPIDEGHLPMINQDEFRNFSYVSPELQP
# [16] = Cmax in NewZealand white rabbit plasma at 0.1 mg/kg, iv after 10 mins by LC-MS/MS analysis; format: ADME, organism-based, Oryctolagus cuniculus; parameters: dose 0.1 mg/kg, route intravenous; conditions: New Zealand white
# [17] = biological target: T2, Protein kinase C epsilon type (Homo sapiens) (UniProt Q02156); assay: Inhibition of human full length PKC epsilon expressed in insect cells using S25 PKC peptide as substrate at 100 nM by radiometric assay in presence of [32P]ATP
# T2 sequence (whole entry): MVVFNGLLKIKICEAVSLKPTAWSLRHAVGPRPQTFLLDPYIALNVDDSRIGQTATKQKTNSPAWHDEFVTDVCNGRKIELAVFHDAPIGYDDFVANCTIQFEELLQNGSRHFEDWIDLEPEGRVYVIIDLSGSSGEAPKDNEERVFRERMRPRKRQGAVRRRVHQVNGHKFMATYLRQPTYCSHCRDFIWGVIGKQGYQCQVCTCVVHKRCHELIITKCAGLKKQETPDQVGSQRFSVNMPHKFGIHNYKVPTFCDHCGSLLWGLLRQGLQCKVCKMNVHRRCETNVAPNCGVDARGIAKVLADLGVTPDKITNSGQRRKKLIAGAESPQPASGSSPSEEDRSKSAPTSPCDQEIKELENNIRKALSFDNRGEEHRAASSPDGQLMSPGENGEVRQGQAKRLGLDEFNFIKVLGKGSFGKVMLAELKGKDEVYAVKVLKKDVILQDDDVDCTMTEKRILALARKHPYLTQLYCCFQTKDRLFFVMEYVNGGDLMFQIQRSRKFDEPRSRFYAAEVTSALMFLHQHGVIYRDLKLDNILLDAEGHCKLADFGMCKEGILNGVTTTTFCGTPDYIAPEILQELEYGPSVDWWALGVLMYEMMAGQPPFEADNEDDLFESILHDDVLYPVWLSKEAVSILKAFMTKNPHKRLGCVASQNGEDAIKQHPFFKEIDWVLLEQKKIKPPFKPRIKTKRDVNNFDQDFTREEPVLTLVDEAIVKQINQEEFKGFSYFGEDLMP
# [18] = biological target: Protein kinase C eta type (Homo sapiens) (UniProt P24723); assay: Inhibition of human N-terminal GST-tagged PKC eta expressed in baculovirus-infected insect cells using PKCe peptide as substrate at 100 nM by radiometric assay in presence of [32P]ATP and lipid activator
# [19] = Half life in NewZealand white rabbit plasma at 0.1 mg/kg, iv by LC-MS/MS analysis; format: ADME, organism-based, Oryctolagus cuniculus; parameters: dose 0.1 mg/kg, route intravenous; conditions: New Zealand white
# [20] = biological target: Serine/threonine-protein kinase N2 (Homo sapiens) (UniProt Q16513); assay: Inhibition of human full length N-terminal GST-tagged PRK2 expressed in insect cells using glycogen synthase derived peptide as substrate at 100 nM by radiometric assay in presence of [32P]ATP
# Sequence of Serine/threonine-protein kinase N2 (Homo sapiens) (Q16513 whole entry, looked up): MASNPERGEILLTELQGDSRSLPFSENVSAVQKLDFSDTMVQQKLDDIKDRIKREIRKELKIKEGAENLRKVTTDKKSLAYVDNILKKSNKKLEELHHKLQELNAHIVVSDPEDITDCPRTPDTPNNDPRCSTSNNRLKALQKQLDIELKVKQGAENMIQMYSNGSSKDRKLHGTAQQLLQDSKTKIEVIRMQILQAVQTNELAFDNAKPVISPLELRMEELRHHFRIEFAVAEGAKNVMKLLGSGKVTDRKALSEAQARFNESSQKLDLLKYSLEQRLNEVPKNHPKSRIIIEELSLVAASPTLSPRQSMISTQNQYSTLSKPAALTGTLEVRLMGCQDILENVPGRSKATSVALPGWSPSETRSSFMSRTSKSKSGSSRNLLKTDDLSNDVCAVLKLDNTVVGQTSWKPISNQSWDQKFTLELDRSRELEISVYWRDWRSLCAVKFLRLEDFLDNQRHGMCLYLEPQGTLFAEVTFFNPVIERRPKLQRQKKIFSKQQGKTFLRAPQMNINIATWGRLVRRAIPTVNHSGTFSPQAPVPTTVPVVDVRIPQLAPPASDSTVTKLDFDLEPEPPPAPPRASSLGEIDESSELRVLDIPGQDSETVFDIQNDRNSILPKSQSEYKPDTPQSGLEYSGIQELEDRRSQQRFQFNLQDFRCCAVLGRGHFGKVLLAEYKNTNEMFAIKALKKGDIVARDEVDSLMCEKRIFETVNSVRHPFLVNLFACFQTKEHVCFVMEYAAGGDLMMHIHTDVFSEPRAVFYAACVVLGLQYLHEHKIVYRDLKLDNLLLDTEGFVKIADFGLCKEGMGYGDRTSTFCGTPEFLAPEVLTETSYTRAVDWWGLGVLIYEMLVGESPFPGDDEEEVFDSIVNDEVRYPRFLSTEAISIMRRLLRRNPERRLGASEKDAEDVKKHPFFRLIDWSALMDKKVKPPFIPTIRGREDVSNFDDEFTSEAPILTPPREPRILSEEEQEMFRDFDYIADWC
# [21] = Lipophilicity, log D of the compound at pH 7.4; format: physicochemical; conditions: buffer
# [22] = Half life in NewZealand white rabbit hepatocytes by LC-PDA-MSA analysis; format: ADME, cell-based, Oryctolagus cuniculus, Hepatocyte; conditions: New Zealand white
# [23] = biological target: Serine/threonine-protein kinase N1 (Homo sapiens) (UniProt Q16512); assay: Inhibition of human full length N-terminal GST-tagged PRK1 expressed in insect cells using glycogen synthase derived peptide as substrate at 100 nM by radiometric assay in presence of [32P]ATP
# Sequence of Serine/threonine-protein kinase N1 (Homo sapiens) (Q16512 2-942 limits assumed): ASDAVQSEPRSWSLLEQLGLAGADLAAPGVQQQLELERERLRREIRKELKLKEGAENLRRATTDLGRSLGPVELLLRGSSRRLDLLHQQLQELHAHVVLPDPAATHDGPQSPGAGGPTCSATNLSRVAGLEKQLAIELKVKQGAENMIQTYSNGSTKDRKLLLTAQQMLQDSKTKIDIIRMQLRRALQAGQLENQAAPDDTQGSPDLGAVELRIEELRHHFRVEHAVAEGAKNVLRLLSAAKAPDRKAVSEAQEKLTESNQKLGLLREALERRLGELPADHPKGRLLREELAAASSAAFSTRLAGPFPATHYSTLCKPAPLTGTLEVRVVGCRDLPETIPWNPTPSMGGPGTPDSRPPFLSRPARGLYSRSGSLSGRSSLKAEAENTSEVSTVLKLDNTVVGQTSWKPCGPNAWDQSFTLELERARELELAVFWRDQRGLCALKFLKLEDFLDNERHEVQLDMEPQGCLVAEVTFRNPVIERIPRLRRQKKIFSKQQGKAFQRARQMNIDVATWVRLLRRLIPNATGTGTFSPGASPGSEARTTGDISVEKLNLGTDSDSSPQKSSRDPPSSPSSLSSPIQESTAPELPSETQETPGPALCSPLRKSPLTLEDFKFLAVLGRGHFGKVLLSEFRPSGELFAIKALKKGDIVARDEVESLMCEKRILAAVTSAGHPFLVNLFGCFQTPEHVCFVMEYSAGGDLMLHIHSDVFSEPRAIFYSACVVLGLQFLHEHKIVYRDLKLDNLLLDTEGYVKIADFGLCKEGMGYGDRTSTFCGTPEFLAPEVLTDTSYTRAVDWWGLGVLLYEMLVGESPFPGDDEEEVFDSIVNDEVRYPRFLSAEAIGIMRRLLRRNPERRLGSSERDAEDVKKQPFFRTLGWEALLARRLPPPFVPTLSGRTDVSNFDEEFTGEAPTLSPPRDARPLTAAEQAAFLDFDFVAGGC
# [24] = biological target: T3, cAMP-dependent protein kinase catalytic subunit PRKX (Homo sapiens) (UniProt P51817); assay: Inhibition of human full length N-terminal GST-tagged PRKX expressed in insect cells using kemptide as substrate at 100 nM by radiometric assay in presence of [32P]ATP
# T3 sequence (whole entry): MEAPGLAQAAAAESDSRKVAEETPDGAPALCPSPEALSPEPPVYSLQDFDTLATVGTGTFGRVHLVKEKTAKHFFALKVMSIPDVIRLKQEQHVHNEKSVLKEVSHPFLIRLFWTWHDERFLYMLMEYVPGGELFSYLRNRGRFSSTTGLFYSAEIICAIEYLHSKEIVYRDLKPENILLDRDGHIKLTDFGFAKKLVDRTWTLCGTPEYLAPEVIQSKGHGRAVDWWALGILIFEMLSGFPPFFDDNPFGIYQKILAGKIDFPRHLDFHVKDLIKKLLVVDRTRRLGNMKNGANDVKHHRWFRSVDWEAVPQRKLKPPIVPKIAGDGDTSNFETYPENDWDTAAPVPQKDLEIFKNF
# [25] = Apparent permeability across human Caco2 cells; format: ADME, cell-based; conditions: Caco-2
# [26] = biological target: Serine/threonine-protein kinase N2 (Homo sapiens) (UniProt Q16513); assay: Inhibition of human full length N-terminal GST-tagged PRK2 expressed in insect cells using glycogen synthase derived peptide as substrate at 10 nM by radiometric assay in presence of [32P]ATP
# [27] = Stability in human hepatocytes assessed as compound remaining after 120 mins by LC-MS/MS analysis; format: ADME, cell-based, Hepatocyte; conditions: read-out: Stability
# [28] = Cmax in NewZealand white rabbit plasma at 0.1 mg/kg, iv after 1 min by LC-MS/MS analysis; format: ADME, organism-based, Oryctolagus cuniculus; parameters: dose 0.1 mg/kg, route intravenous; conditions: New Zealand white
# [29] = Stability in NewZealand white rabbit hepatocytes assessed as compound remaining after 120 mins by LC-MS/MS analysis; format: ADME, cell-based, Oryctolagus cuniculus, Hepatocyte; conditions: New Zealand white, read-out: Stability
# [30] = Half life in human hepatocytes by LC-PDA-MSA analysis; format: ADME, cell-based, Hepatocyte
# [31] = biological target: Ribosomal protein S6 kinase alpha-5 (Homo sapiens) (UniProt O75582); assay: Inhibition of human full length N-terminal GST-tagged MSK1 expressed in insect cells using crosstide as substrate at 100 nM by radiometric assay in presence of [32P]ATP
# Sequence of Ribosomal protein S6 kinase alpha-5 (Homo sapiens) (O75582 whole entry, looked up): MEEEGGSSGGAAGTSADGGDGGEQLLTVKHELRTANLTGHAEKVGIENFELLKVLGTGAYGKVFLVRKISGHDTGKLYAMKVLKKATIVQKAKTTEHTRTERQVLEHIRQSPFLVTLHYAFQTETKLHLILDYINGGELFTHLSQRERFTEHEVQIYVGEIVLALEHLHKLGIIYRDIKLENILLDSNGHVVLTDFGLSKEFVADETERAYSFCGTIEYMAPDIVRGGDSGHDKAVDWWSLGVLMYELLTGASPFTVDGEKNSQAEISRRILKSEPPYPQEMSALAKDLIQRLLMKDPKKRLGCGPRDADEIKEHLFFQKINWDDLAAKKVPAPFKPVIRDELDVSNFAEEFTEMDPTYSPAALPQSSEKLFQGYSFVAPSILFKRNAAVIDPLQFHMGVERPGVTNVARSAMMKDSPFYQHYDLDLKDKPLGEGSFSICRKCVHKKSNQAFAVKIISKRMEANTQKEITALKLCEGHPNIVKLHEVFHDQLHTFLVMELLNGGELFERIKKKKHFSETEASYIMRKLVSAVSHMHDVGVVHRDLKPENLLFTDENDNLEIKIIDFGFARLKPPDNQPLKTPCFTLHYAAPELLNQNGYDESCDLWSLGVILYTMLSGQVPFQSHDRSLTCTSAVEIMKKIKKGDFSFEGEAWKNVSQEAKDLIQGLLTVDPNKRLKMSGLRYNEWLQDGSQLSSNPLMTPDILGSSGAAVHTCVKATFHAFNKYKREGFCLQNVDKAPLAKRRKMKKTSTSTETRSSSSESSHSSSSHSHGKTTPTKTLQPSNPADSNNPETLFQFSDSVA
# [32] = Cmax in NewZealand white rabbit plasma at 0.1 mg/kg, iv after 30-60 mins by LC-MS/MS analysis; format: ADME, organism-based, Oryctolagus cuniculus; parameters: dose 0.1 mg/kg, route intravenous; conditions: New Zealand white
# [33] = biological target: Rho-associated protein kinase 1 (Homo sapiens, UniProt Q13464); assay: Inhibition of human N-terminal GST-tagged ROCK1 expressed in insect cells using long S6 kinase peptide as substrate by radiometric assay in presence of [32P]ATP
# Oryctolagus cuniculus [34] = assay: Cmax in NewZealand white rabbit plasma assessed as 4-{[(2'-(Aminomethyl)-5'-{[(3-fluoropyridin-4-yl)amino]-carbonyl}biphenyl-3-yl)carbonyl]amino}benzoic Acid at 0.1 mg/kg, iv after 10 mins by LC-MS/MS analysis; format: ADME, organism-based; parameters: dose 0.1 mg/kg, route intravenous; conditions: in vivo
# [35] = biological target: Protein kinase C delta type (Homo sapiens) (UniProt Q05655); assay: Inhibition of human full length PKC delta expressed in insect cells using PKCe peptide as substrate at 100 nM by radiometric assay in presence of [32P]ATP and lipid activator
# [36] = Half life in NewZealand white rabbit plasma by LC-MS/MS analysis; format: ADME, cell-free, Oryctolagus cuniculus; conditions: New Zealand white
# Homo sapiens = species: Homo sapiens; assay: Inhibition of human full length C-terminal His6-tagged PKC theta P300L mutant expressed in baculovirus-infected insect cells using histone H1 as substrate at 100 nM by radiometric assay in presence of [32P]ATP and lipid activator
# [37] = Cmax in NewZealand white rabbit plasma at 0.1 mg/kg, iv after 5 mins by LC-MS/MS analysis; format: ADME, organism-based, Oryctolagus cuniculus; parameters: dose 0.1 mg/kg, route intravenous; conditions: New Zealand white
compound,measurement,setting,value
NCc1ccc(C(=O)Nc2ccncc2F)cc1-c1cccc(C(=O)Nc2ccc(CC(=O)OC3CCCC3)cc2)c1,half-life,[1],7 min
same,EC50,[2],26 nM
same,Activity,[3],Toxic
same,CC50 at 2 h,[4],29 µM
same,remaining at 1 h,[5],2%
same,Activity,HDF-1,Dose-dependent effect
same,IC50,[6],< 1 nM
same,IC50,[7],1.3 nM
same,remaining at 1 h,[8],100%
COC(=O)c1ccc(F)c(NC(=O)c2cccc(-c3cc(C(=O)Nc4ccncc4F)ccc3CN)c2)c1,Stability,Plasma [9],Stable
same,half-life,[1],18 min
same,EC50,[2],26 nM
same,CC50 at 2 h,[4],45 µM
same,Stability,Plasma [10],Unstable
same,Stability,Plasma [11],Unstable
same,remaining at 1 h,[5],13%
same,Activity,[12],Toxic
same,Activity,HDF-1,Dose-dependent effect
same,Stability,Plasma [13],Unstable
same,IC50,[6],1.6 nM
same,IC50,[7],46 nM
same,remaining at 1 h,[8],98%
COC(=O)c1ccc(NC(=O)c2cccc(-c3cc(C(=O)Nc4ccncc4F)ccc3CN)c2)cc1,Cmax,Oryctolagus cuniculus [14],> 35 nM
same,half-life,[1],> 120 min
same,inhibition,[15],> 50%
same,Cmax,[16],57 nM
same,inhibition,[17],Active
same,inhibition,[18],Active
same,EC50,[2],3 nM
same,half-life,[19],22 min
same,inhibition,[20],Active
same,logD,[21],2.74
same,half-life,[22],12 min
same,inhibition,[23],Active
same,inhibition,[24],Active
same,Papp,[25],0.8 ×10⁻⁶ cm/s
same,inhibition,[26],> 50%
same,CC50 at 2 h,[4],46 µM
same,remaining at 2 h,[27],2.4%
same,Cmax,[28],803 nM
same,Activity,[12],Toxic
same,remaining at 2 h,[29],0.4%
same,half-life,[30],12 min
same,inhibition,[31],Active
same,Activity,HDF-1,Dose-dependent effect
same,Cmax,[32],> 8 nM
same,IC50,[33],< 1 nM
same,Cmax,Oryctolagus cuniculus [34],255 nM
same,IC50,[6],< 1 nM
same,inhibition,[35],Active
same,IC50,[7],4.1 nM
same,half-life,[36],> 120 min
same,inhibition,Homo sapiens,Active
same,Cmax,[37],176 nM

# From ChEMBL document CHEMBL3425434 (J Med Chem, 2015)
